Where a SMILES comes first, the peptide text is derived from it.
Assay: solubility pre-screen in an aqueous, acidic milieu; further: test concentration or dose not given here
Assay type: physicochemical

With `CC[C@H](C)[C@H](N)C(=O)N[C@@H](CC(=O)O)C(=O)N[C@@H](CC(C)C)C(=O)N[C@@H](CCCNC(=N)N)C(=O)N[C@@H](CCC(N)=O)C(=O)N[C@@H](CCSC)C(=O)N[C@@H](CCCNC(=N)N)C(=O)N[C@H](C(=O)N[C@H](C(=O)N[C@H](C(=O)N1CCC[C@H]1C(=O)N[C@H](C(=O)N[C@@H](CCCNC(=N)N)C(=O)O)[C@@H](C)CC)[C@@H](C)O)C(C)C)[C@@H](C)O` [HDM01] (H-IDLRQMRTVTPIR-OH; N-terminus and C-terminus assumed) the Solubility test was “YES”.

In the case of `CC[C@H](C)[C@H](NC(=O)[C@@H]1CCCN1C(=O)[C@@H](NC(=O)[C@@H](NC(=O)[C@@H](NC(=O)[C@@H](N)CCCNC(=N)N)[C@@H](C)O)C(C)C)[C@@H](C)O)C(=O)N[C@@H](CCCNC(=N)N)C(=O)N[C@@H](CCSC)C(=O)N[C@@H](CCC(N)=O)C(=O)NCC(=O)NCC(=O)N[C@@H](CS)C(=O)NCC(=O)O` [HDM02] (H-RTVTPIRMQGGCG-OH; N-terminus and C-terminus assumed), the Solubility test is reported as “YES”.

In the case of `CC(C)C[C@H](NC(=O)[C@H](CC(=O)O)NC(=O)[C@H](CC(C)C)NC(=O)[C@H](CO)NC(=O)[C@H](CCC(N)=O)NC(=O)[C@H](CC(N)=O)NC(=O)[C@@H](N)CCCNC(=N)N)C(=O)N[C@@H](C)C(=O)N[C@@H](CCC(=O)O)C(=O)N[C@@H](CCC(N)=O)C(=O)N[C@@H](CCC(=O)O)C(=O)N[C@@H](CC(C)C)C(=O)N[C@H](C(=O)N[C@@H](CC(=O)O)C(=O)N[C@@H](CS)C(=O)N[C@@H](C)C(=O)N[C@@H](CO)C(=O)N[C@@H](CCC(N)=O)C(=O)N[C@@H](Cc1c[nH]cn1)C(=O)O)C(C)C` [HDM03C] (H-RNQSLDLAEQELVDCASQH-OH; N-terminus and C-terminus assumed), the Solubility test is reported as “YES”.

For `CC[C@H](C)[C@H](NC(=O)[C@H](Cc1ccc(O)cc1)NC(=O)[C@@H](N)CCC(=O)O)C(=O)N[C@@H](CCC(N)=O)C(=O)N[C@@H](Cc1c[nH]cn1)C(=O)N[C@@H](CC(N)=O)C(=O)NCC(=O)N[C@H](C(=O)N[C@H](C(=O)N[C@@H](CCC(N)=O)C(=O)N[C@@H](CCC(=O)O)C(=O)N[C@@H](CO)C(=O)N[C@@H](Cc1ccc(O)cc1)C(=O)O)C(C)C)C(C)C` [HDM05] (H-EYIQHNGVVQESY-OH), the Solubility test was “YES”.

For `CC(C)[C@H](NC(=O)[C@H](Cc1ccc(O)cc1)NC(=O)[C@@H](N)CCCNC(=N)N)C(=O)N[C@@H](C)C(=O)N[C@@H](CCCNC(=N)N)C(=O)N[C@@H](CCC(=O)O)C(=O)N[C@@H](CCC(N)=O)C(=O)N[C@@H](CO)C(=O)N[C@@H](CS)C(=O)N[C@@H](CCCNC(=N)N)C(=O)N[C@@H](CCCNC(=N)N)C(=O)N1CCC[C@H]1C(=O)N[C@@H](CC(N)=O)C(=O)O` [HDM06] (H-RYVAREQSCRRPN-OH; N-terminus and C-terminus assumed), the Solubility test was “YES”.

With `CC[C@H](C)[C@H](NC(=O)[C@H](CCCCN)NC(=O)[C@H](CC(N)=O)NC(=O)[C@@H](NC(=O)[C@H](CC(N)=O)NC(=O)[C@@H]1CCCN1)C(C)C)C(=O)N[C@@H](CCCNC(=N)N)C(=O)N[C@@H](CCC(=O)O)C(=O)N[C@@H](C)C(=O)N[C@@H](CC(C)C)C(=O)N[C@@H](C)C(=O)N[C@@H](CCC(N)=O)C(=O)N[C@H](C(=O)O)[C@@H](C)O` [HDM07] (H-PNVNKIREALAQT-OH) the Solubility test was “YES”.

For `CC[C@H](C)[C@H](NC(=O)[C@H](CCCCN)NC(=O)[C@@H](N)CC(N)=O)C(=O)N[C@@H](CCCNC(=N)N)C(=O)N[C@@H](CCC(=O)O)C(=O)N[C@@H](C)C(=O)N[C@@H](CC(C)C)C(=O)N[C@@H](C)C(=O)N[C@@H](CCC(N)=O)C(=O)N[C@H](C(=O)N[C@@H](Cc1c[nH]cn1)C(=O)N[C@@H](CO)C(=O)N[C@@H](C)C(=O)O)[C@@H](C)O` [HDM08] (H-NKIREALAQTHSA-OH), the Solubility test was “YES”.

With `CC[C@H](C)[C@H](N)C(=O)NCC(=O)N[C@H](C(=O)N[C@@H](CCCCN)C(=O)N[C@@H](CC(=O)O)C(=O)N[C@@H](CC(C)C)C(=O)N[C@@H](CC(=O)O)C(=O)N[C@@H](C)C(=O)N[C@@H](Cc1ccccc1)C(=O)N[C@@H](CCCNC(=N)N)C(=O)N[C@@H](Cc1c[nH]cn1)C(=O)N[C@@H](Cc1ccc(O)cc1)C(=O)N[C@@H](CC(=O)O)C(=O)O)[C@@H](C)CC` [HDM11] (H-IGIKDLDAFRHYD-OH) the Solubility test was “YES”.

For `CC(C)C[C@H](NC(=O)[C@H](CC(=O)O)NC(=O)[C@@H](N)CCCCN)C(=O)N[C@@H](CC(=O)O)C(=O)N[C@@H](C)C(=O)N[C@@H](Cc1ccccc1)C(=O)N[C@@H](CCCNC(=N)N)C(=O)N[C@@H](Cc1c[nH]cn1)C(=O)N[C@@H](Cc1ccc(O)cc1)C(=O)N[C@@H](CC(=O)O)C(=O)NCC(=O)N[C@@H](CCCNC(=N)N)C(=O)N[C@H](C(=O)O)[C@@H](C)O` [HDM12] (H-KDLDAFRHYDGRT-OH), the Solubility test was “YES”.

In the case of `C[C@@H](O)[C@H](NC(=O)[C@H](CC(=O)O)NC(=O)[C@H](Cc1c[nH]c2ccccc12)NC(=O)[C@H](CO)NC(=O)[C@H](CC(N)=O)NC(=O)[C@@H](N)CCCNC(=N)N)C(=O)N[C@@H](CC(N)=O)C(=O)N[C@@H](Cc1c[nH]c2ccccc12)C(=O)NCC(=O)N[C@@H](CC(=O)O)C(=O)N[C@@H](CC(N)=O)C(=O)NCC(=O)N[C@@H](Cc1ccc(O)cc1)C(=O)NCC(=O)O` [HDM16A] (H-RNSWDTNWGDNGYG-OH), the Solubility test is reported as “YES”.

For `CC(C)C[C@H](NC(=O)[C@H](CC(=O)O)NC(=O)[C@H](CC(C)C)NC(=O)[C@H](CCC(=O)O)NC(=O)[C@H](CO)NC(=O)[C@@H]1CCCN1C(=O)[C@@H](NC(=O)[C@H](CC(N)=O)NC(=O)[C@@H](NC(=O)[C@H](CO)NC(=O)[C@@H](N)CC(N)=O)C(C)C)C(C)C)C(=O)N[C@@H](CCCNC(=N)N)C(=O)N[C@@H](CO)C(=O)N[C@@H](CC(C)C)C(=O)N[C@@H](CCCNC(=N)N)C(=O)N[C@H](C(=O)O)[C@@H](C)O` [HDM17] (H-NSVNVPSELDLRSLRT-OH), the Solubility test was “YES”.

For `CC[C@H](C)[C@H](NC(=O)[C@H](CCC(=O)O)NC(=O)[C@H](Cc1c[nH]cn1)NC(=O)[C@H](CC(N)=O)NC(=O)[C@H](C)NC(=O)[C@H](CS)NC(=O)[C@H](CC(=O)O)NC(=O)[C@H](CCCCN)NC(=O)[C@@H](NC(=O)[C@H](CC(=O)O)NC(=O)[C@@H](NC(=O)[C@H](CCC(N)=O)NC(=O)[C@@H](N)CC(=O)O)C(C)C)C(C)C)C(=O)N[C@@H](CCCCN)C(=O)N[C@@H](CCCCN)C(=O)O` [HDM19] (H-DQVDVKDCANHEIKK-OH), the Solubility test was “YES”.

In the case of `CC[C@H](C)[C@H](NC(=O)[C@@H](NC(=O)[C@@H](N)CS)[C@@H](C)CC)C(=O)N[C@@H](Cc1c[nH]cn1)C(=O)N[C@@H](CCCNC(=N)N)C(=O)NCC(=O)N[C@@H](CCCCN)C(=O)N1CCC[C@H]1C(=O)N[C@@H](Cc1ccccc1)C(=O)N[C@@H](CCC(N)=O)C(=O)N[C@@H](CC(C)C)C(=O)N[C@@H](CCC(=O)O)C(=O)N[C@@H](C)C(=O)O` [HDM20] (H-CIIHRGKPFQLEA-OH; N-terminus and C-terminus assumed), the Solubility test is reported as “YES”.

For `CC(C)[C@H](NC(=O)[C@H](C)NC(=O)[C@@H](N)CCC(=O)O)C(=O)N[C@@H](Cc1ccccc1)C(=O)N[C@@H](CCC(=O)O)C(=O)N[C@@H](C)C(=O)N[C@@H](CC(N)=O)C(=O)N[C@@H](CCC(N)=O)C(=O)N[C@@H](CC(N)=O)C(=O)N[C@H](C(=O)N[C@@H](CCCCN)C(=O)N[C@H](C(=O)N[C@@H](C)C(=O)N[C@@H](CCCCN)C(=O)O)[C@@H](C)O)[C@@H](C)O` [HDM22A] (H-EAVFEANQNTKTAK-OH; N-terminus and C-terminus assumed), the Solubility test was “YES”.

For `CSCC[C@H](NC(=O)[C@@H]1CCCN1C(=O)[C@H](CC(=O)O)NC(=O)[C@H](Cc1ccccc1)NC(=O)[C@@H](NC(=O)[C@@H](N)CCC(=O)O)[C@@H](C)O)C(=O)N[C@@H](CCCCN)C(=O)N[C@H](C(=O)N1CCC[C@H]1C(=O)N[C@@H](CC(=O)O)C(=O)N[C@@H](Cc1c[nH]cn1)C(=O)N[C@@H](CO)C(=O)N[C@@H](CC(=O)O)C(=O)N[C@@H](CCCCN)C(=O)O)C(C)C` [HDM29A] (H-ETFDPMKVPDHSDK-OH), the Solubility test was “YES”.

For `CSCC[C@H](NC(=O)[C@@H]1CCCN1C(=O)[C@H](CC(=O)O)NC(=O)[C@H](Cc1ccccc1)NC(=O)[C@@H](NC(=O)[C@@H](N)CCC(=O)O)[C@@H](C)O)C(=O)N[C@@H](CCCCN)C(=O)N[C@H](C(=O)N1CCC[C@H]1C(=O)N[C@@H](CC(=O)O)C(=O)N[C@@H](Cc1c[nH]cn1)C(=O)N[C@@H](CO)C(=O)N[C@@H](CC(=O)O)C(=O)O)C(C)C` [HDM29] (H-ETFDPMKVPDHSD-OH), the Solubility test was “YES”.

With `CC[C@H](C)[C@H](NC(=O)[C@H](CC(N)=O)NC(=O)[C@H](CCCNC(=N)N)NC(=O)[C@H](CCSC)NC(=O)[C@H](CC(=O)O)NC(=O)[C@@H](N)CC(C)C)C(=O)N[C@@H](CCC(N)=O)C(=O)N[C@H](C(=O)N[C@@H](CCCNC(=N)N)C(=O)NCC(=O)N[C@@H](CC(C)C)C(=O)N[C@@H](CCCCN)C(=O)N[C@@H](CCC(N)=O)C(=O)O)C(C)C` [HDM33] (H-LDMRNIQVRGLKQ-OH; N-terminus and C-terminus assumed) the Solubility test was “YES”.

For `CC[C@H](C)[C@H](NC(=O)[C@H](CC(N)=O)NC(=O)[C@@H](N)CCCNC(=N)N)C(=O)N[C@@H](CCC(N)=O)C(=O)N[C@H](C(=O)N[C@@H](CCCNC(=N)N)C(=O)NCC(=O)N[C@@H](CC(C)C)C(=O)N[C@@H](CCCCN)C(=O)N[C@@H](CCC(N)=O)C(=O)N[C@@H](CCSC)C(=O)N[C@@H](CCCCN)C(=O)N[C@@H](CCCNC(=N)N)C(=O)N[C@H](C(=O)NCC(=O)O)C(C)C)C(C)C` [HDM34] (H-RNIQVRGLKQMKRVG-OH; N-terminus and C-terminus assumed), the Solubility test was “YES”.

In the case of `CSCC[C@H](NC(=O)[C@H](CCC(N)=O)NC(=O)[C@H](CCCCN)NC(=O)[C@H](CC(C)C)NC(=O)CNC(=O)[C@@H](N)CCCNC(=N)N)C(=O)N[C@@H](CCCCN)C(=O)N[C@@H](CCCNC(=N)N)C(=O)N[C@H](C(=O)NCC(=O)N[C@@H](CC(=O)O)C(=O)N[C@@H](C)C(=O)N[C@@H](CC(N)=O)C(=O)O)C(C)C` [HDM35] (H-RGLKQMKRVGDAN-OH; N-terminus and C-terminus assumed), the Solubility test is reported as “YES”.

With `CC(C)[C@H](NC(=O)[C@H](CCCNC(=N)N)NC(=O)[C@@H](N)CCCCN)C(=O)NCC(=O)N[C@@H](CC(=O)O)C(=O)N[C@@H](C)C(=O)N[C@@H](CC(N)=O)C(=O)N[C@H](C(=O)N[C@@H](CCCCN)C(=O)N[C@@H](CO)C(=O)N[C@@H](CCC(=O)O)C(=O)N[C@@H](CC(=O)O)C(=O)NCC(=O)O)C(C)C` [HDM36] (H-KRVGDANVKSEDG-OH) the Solubility test was “YES”.

From US9340580B2, “Peptide with multiple epitopes” (priority 2007, dated 2016)
